Reference: patent publication US7250434B2, “CCK-1 receptor modulators” (Janssen Pharmaceutica N.V., priority 2003, dated 2007)

These compounds were tested against T1, CCK-1 receptor (Homo sapiens, UniProt P32238) (assay: [125I]-BH-CCK-8S competition binding to membranes of CHO-K1 cells stably transfected with the CCK-1 receptor). Settings: membranes of CCK-1 transfected CHO-K1 cells; 20 pM [125I]-BH-CCK-8S; 0.3 μM PD-134,308 present; 60 min at 21±3° C.; Cheng-Prusoff.
T1 construct: expressed in transfected cells; membranes
T1 sequence (P32238 1-428): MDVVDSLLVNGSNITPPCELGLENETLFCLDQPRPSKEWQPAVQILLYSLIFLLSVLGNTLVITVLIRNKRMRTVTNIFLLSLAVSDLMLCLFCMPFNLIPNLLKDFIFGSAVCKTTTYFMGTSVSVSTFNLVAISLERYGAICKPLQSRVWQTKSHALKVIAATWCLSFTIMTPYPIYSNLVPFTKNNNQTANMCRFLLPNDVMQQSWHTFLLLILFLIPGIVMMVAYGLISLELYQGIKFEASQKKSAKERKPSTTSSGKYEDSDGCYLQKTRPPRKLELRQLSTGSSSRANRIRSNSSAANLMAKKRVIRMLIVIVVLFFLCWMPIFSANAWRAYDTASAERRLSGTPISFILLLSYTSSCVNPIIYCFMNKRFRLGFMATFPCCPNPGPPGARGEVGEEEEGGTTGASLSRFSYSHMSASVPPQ
Description: CHO-K1 cells that had undergone stable transfection with the CCK-1 receptor were grown in DMEM supplemented with L-glutamine (2 mM), penicillin (50 units/mL) and streptomycin (50 μg/mL). Cells were cultured under continuous G418 selection (2 mM) and were harvested using a rubber cell scraper. CHO-K1 cells were sub-cultured a maximum of ten times before being reseeded from the original stocks.
Membranes were prepared from the stably transfected CHO-K1 cells. Frozen cell pellets (−40° C.) were thawed in 14 mL of buffer A (10 mM HEPES, 130 mM NaCl, 4.7 mM KCl, 5 mM MgCl, 1 mM EGTA and 15.4 mg/100 mL bacitracin at pH 7.2), adapted from Harper et al. (Br. J. Pharmacol. 1996, 118:1717-1726). The thawed pellets were homogenized using a Polytron PT-10 (7×1 s). The homogenates were centrifuged for 5 min at 1500 rpm (600×g), and the resulting pellets were discarded. The supernatants were re-centrifuged in order to collect the receptor-membrane pellets (25 min 15,000 rpm; 39,800×g), which were re-suspended in buffer A.
All assays were conducted in 96-well plates (GF/B millipore filter plates) using buffer A, with 0.3 μM PD-134,308, for the dilutions. The CCK-2 receptor ligand was included to eliminate the contribution of this receptor subtype to the binding. For the optimal cell number determination experiments 20 pM [^125I]-BH-CCK-8S (50 μL 60 pM solution) was incubated with a range of cell concentrations (2.5×105 to 12.5×10^5 cells/well) in a total volume of 150 μL. Total binding of [^125I]-BH-CCK-8S was determined in the presence of 15 μL of buffer A. Non-specific binding of [^125I]-BH-CCK-8S was determined in the presence of 15 μL of 100 μM 2-naphthalenesulphonyl L-aspartyl-(2-phenethyl)amide (2-NAP: see R. A. Hull et al. Br. J. Pharmacol. 1993, 108:734-740), a CCK-1 receptor selective antagonist that is structurally unrelated to the radioligand [^125I]-BH-CCK-8S. The assay preparation was incubated for 1 h at 21±3° C., and then the assay was terminated upon rapid filtration of the preparation under reduced pressure. The loaded filters were washed three times using undiluted PBS (100 μL), and then the residues were transferred to 5 mL scintillation tubes. Bound radioactivity was determined using a gamma counter (count time=1 min). From these experiments a cell concentration of 1 pellet in 40 mL of buffer (2.5×10^6 cells/mL) was chosen for use in other assays (below). To validate the radioligand concentration and incubation time for the assay, saturation and kinetic binding studies were also conducted (see M. F. Morton, The Pharmacological Characterization of Cholecystokinin Receptors in the Human Gastrointestinal Tract. PhD Thesis, University of London, 2000). The affinity of novel compounds was estimated by incubating membrane preparations with 15 μL of competing ligand (0.1 pM-1 mM) for 60 min at 21±3° C. The assay was then terminated according to the procedure outlined above.
The pKi values were determined using the equation of Y.-C. Cheng and W. H. Prusoff (Biochem. Pharmacol. 1973, 22(23):3099-3108):
[formula] To circumvent problems associated with computer-assisted data analysis of compounds with low affinity, the data obtained in the current study were weighted according to a method described by Morton (2000). In brief, 100% and 0% specific binding were defined independently using total binding and binding obtained in the presence of a high concentration of the reference antagonist, 2-NAP.

SMILES	Ki [nM]
COc1ccc(-c2[nH]c(CC(C(=O)O)c3cccc4ccccc34)nc2-c2ccc(Cl)c(Cl)c2)cc1 (centres unmarked) [Example 26, 3-[4-(3,4-Dichloro-phenyl)-5-(4-methoxy-phenyl)-1H-imidazol-2-yl]-2-naphthalen-1-yl-propionic acid]	39.8
COc1ccc(-c2[nH]c(CC(C(=O)O)c3cccc(C(F)(F)F)c3)nc2-c2ccc(Cl)c(Cl)c2)cc1 (centres unmarked) [Example 27, 3-[4-(3,4-Dichloro-phenyl)-5-(4-methoxy-phenyl)-1H-imidazol-2-yl]-2-(3-trifluoromethyl-phenyl)-propionic acid]	50.1
Cc1ccc(-c2nc(CC(C(=O)O)c3cccc(C)c3)[nH]c2-c2ccc(C)cc2)cc1 (centres unmarked) [Example 30, 3-(4,5-Di-p-tolyl-1H-imidazol-2-yl)-2-m-tolyl-propionic acid]	20
Cc1ccc(-c2nc(CC(C(=O)O)c3cccc(C)c3)n(C)c2-c2ccc(C)cc2)cc1 (centres unmarked) [Example 31, 3-(1-Methyl-4,5-di-p-tolyl-1H-imidazol-2-yl)-2-m-tolyl-propionic acid]	39.8
O=C(O)C(Cc1nc(-c2ccccc2Cl)c(-c2ccccc2Cl)[nH]1)c1cccc2ccccc12 (centres unmarked) [Example 32, 3-[4,5-Bis-(2-chloro-phenyl)-1H-imidazol-2-yl]-2-naphthalen-1-yl-propionic acid]	398
COc1cccc(-c2nc(CC(C(=O)O)c3cccc4ccccc34)[nH]c2-c2cccc(OC)c2)c1 (centres unmarked) [Example 33, 3-[4,5-Bis-(3-methoxy-phenyl)-1H-imidazol-2-yl]-2-naphthalen-1-yl-propionic acid]	2510

Second part, the compound after the results:

Ki [nM]	SMILES
31.6	COc1ccc(-c2[nH]c(CC(C(=O)O)c3cccc(C)c3)nc2-c2ccc(Cl)c(Cl)c2)cc1 (centres unmarked) [Example 24, 3-[4-(3,4-Dichloro-phenyl)-5-(4-methoxy-phenyl)-1H-imidazol-2-yl]-2-m-tolyl-propionic acid]
31.6	COc1ccc(-c2[nH]c(CC(C(=O)O)c3cccc(Cl)c3)nc2-c2ccc(Cl)c(Cl)c2)cc1 (centres unmarked) [Example 25, 2-(3-Chloro-phenyl)-3-[4-(3,4-dichloro-phenyl)-5-(4-methoxy-phenyl)-1H-imidazol-2-yl]-propionic acid]
63.1	COc1ccc(-c2[nH]c(CC(C(=O)O)c3ccc(Cl)cc3)nc2-c2ccc(Cl)c(Cl)c2)cc1 (centres unmarked) [Example 28, 2-(4-Chloro-phenyl)-3-[4-(3,4-dichloro-phenyl)-5-(4-methoxy-phenyl)-1H-imidazol-2-yl]-propionic acid]
126	COc1ccc(-c2[nH]c(CC(C(=O)O)c3ccc(C)cc3)nc2-c2ccc(Cl)c(Cl)c2)cc1 (centres unmarked) [Example 29, 3-[4-(3,4-Dichloro-phenyl)-5-(4-methoxy-phenyl)-1H-imidazol-2-yl]-2-p-tolyl-propionic acid]
10000	O=C(O)C(Cc1nc(-c2ccc(F)cc2)c(-c2ccc(F)cc2)[nH]1)c1cccc2ccccc12 (centres unmarked) [Example 34, 3-[4,5-Bis-(4-fluoro-phenyl)-1H-imidazol-2-yl]-2-naphthalen-1-yl-propionic acid]
